Target: T1, GPX4 (Homo sapiens, UniProt P36969)
T1 sequence (P36969 1-170 isoform P36969-2): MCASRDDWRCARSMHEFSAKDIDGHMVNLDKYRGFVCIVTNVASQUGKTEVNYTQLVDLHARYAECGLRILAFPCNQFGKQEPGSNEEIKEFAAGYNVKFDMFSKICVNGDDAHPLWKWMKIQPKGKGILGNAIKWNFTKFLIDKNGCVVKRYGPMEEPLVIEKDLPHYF
Assay: GPX4 activity assay in cell lysates (NADPH-coupled)
Assay type: biochemical
Design: endogenous in cells; host or cells: A-673 cell lysate
Settings: not given
Experimental: Determination of GPX4 activity in cell lysates was performed as previously described by Roveri et al. 1994 with minor modifications. Briefly, the assay measures the consumption of NADPH, which has a characteristic absorbance at 340 nm, over time as a proxy for GPX4 activity. The rationale for this is that as GPX4 reduces phospholipid hydroperoxides, it oxidizes glutathione, which is then regenerated by glutathione reductase at the expense of NADPH. NADPH is added to the assay in excess such that the reduction of oxidized glutathione is not the rate-limiting reaction in the assay. Thus, the resulting reduction in NADPH absorbance over time reflects GPX4 activity.
The GPX4-specific substrate phosphatidylcholine hydroperoxide (PCOOH) was prepared by enzymatic hydroperoxidation. Specifically, 0.3 mM phosphatidylcholines (Sigma-Aldrich) were incubated with 0.7 mg soybean lipoxidase type IV (Sigma-Aldrich) in 22 mL of 0.2 M Tris-HCl pH 8.8 with 3 mM sodium deoxycholate at room temperature under continuous stirring for 30 minutes. A Sep-Pak C18 cartridge (Waters-Millipore) was pre-washed with methanol and equilibrated with water, then the substrate mixture was loaded. The column was washed with 10 volumes of water and PCOOH was eluted with 2 mL of methanol.
To prepare the cell lysate containing native GPX4, A-673 cells were cultured with 20 nM sodium selenite to confluency over two days then harvested and washed with cold PBS. Cells were then resuspended at 10 million cells per 1 mL LCW lysis buffer (0.5% peroxide-free Triton X-100, 0.5% sodium deoxycholate salt, 150 mM NaCl, 20 mM Tris-HCl pH 7.5, 10 mM EDTA, 30 mM sodium pyrophosphate, and complete protease inhibitor cocktail), vortexed for 30 seconds, and incubated on ice for 15 minutes. After lysis, the lysates were centrifuged at 14,000×g and 4° C. for 15 minutes. The supernatants were transferred to new pre-chilled tube and the debris pellet was discarded. The protein concentration in the lysate was determined for normalization using the BCA Protein Assay Kit (Pierce).
To measure GPX4 activity, 50 μL of cell lysate was combined with 200 μL activity assay buffer (0.1% Triton X-100, 100 mM Tris-HCl pH 8.0, 10 mM sodium azide, 5 mM EDTA, 0.6 IU/mL glutathione reductase, 0.5 mM NADPH and 3 mM GSH) and compounds of interest in a clear 96-well plate and incubated at 37° C. for 45 minutes. Compounds were dissolved in DMSO. All conditions were tested in triplicate. PCOOH substrate was added to the mixture to initiate GPX4 activity just before reading the plate. The absorbance of NADPH at 340 nm was monitored kinetically over time for 25 minutes. Buffer-only controls and controls without substrate containing only the methanol vehicle were performed to assess background and baseline signal. GPX4 activity was calculated as previously reported by Stolwijk et al. 2020 and results were analyzed in GraphPad Prism 9.

SMILES | GPX4 inhibitory activity, result in words
Cn1nc(C(=O)NC(C)(C)COC(=O)CCl)c2ccc(-c3ccc(C(F)(F)F)cc3)cc21 [QW-502] | inactive during GPX4 inhibition

Same assay, conditions: 2.5 μM

GPX4% inhibition at 2.5 μM | SMILES
78.5 ± 10.5% | Cn1nc(C(=O)NC(C)(C)COC(=O)CCl)c2ccc(-c3ccc(C(F)(F)F)c(Cl)c3)cc21 [QW-794]
81.5 ± 1.9% | COc1ccc(-c2ccc3c(C(=O)NC(C)(C)COC(=O)CCl)nn(C)c3c2)cc1Br [QW-611]
18.1 ± 5.9% | Cn1nc(C(=O)NC(C)(C)COC(=O)CCl)c2ccc(-c3ccc(NS(C)(=O)=O)cc3)cc21 [QW-618]
52.0 ± 27.0% | COC(=O)C=CC(=O)OCC(C)(C)NC(=O)c1nn(C)c2cc(-c3ccc(OC)c(Cl)c3)ccc12 [QW-646]
71.4 ± 6.9% | CC(C)Oc1c(Cl)cc(-c2ccc3c(C(=O)NC(C)(C)COC(=O)CCl)nn(C)c3c2)cc1Cl [QW-820]
46.9 ± 35.9% | CN(C)CCCOc1ccc(-c2ccc3c(C(=O)NC(C)(C)COC(=O)CCl)nn(C)c3c2)cc1 [QW-647]
2.4 ± 17.3% | Cn1nc(C(=O)NC(C)(C)COC(=O)CCl)c2ccc(-c3ccc(OCC(F)(F)F)cc3)cc21 [QW-719]
72.2 ± 5.9% | COc1ccc(-c2ccc3c(C(=O)NC(C)(C)COC(=O)CBr)nn(C)c3c2)cc1Cl [QW-608]
6.7 ± 11.9% | C=CC(=O)OCC(C)(C)NC(=O)c1nn(C)c2cc(-c3ccc(OC)c(Cl)c3)ccc12 [QW-609]

More lines, now with the values behind:

SMILES | GPX4% inhibition at 2.5 μM
Cn1nc(C(=O)NC(C)(C)CNC(=O)CCl)c2ccc(-c3ccc(N4CCOCC4)c(Cl)c3)cc21 [QW-629] | 14.9 ± 16.7%
COc1c(Cl)cc(-c2ccc3c(-n4cc(CCOC(=O)CCl)nn4)nn(C)c3c2)cc1Cl [QW-752] | −6.6 ± 9.7%
COc1ccc(-c2ccc3c(NC(=O)C(C)(C)COC(=O)CCl)nn(C)c3c2)cc1Cl [QW-722] | −2.2 ± 5.0%
Cn1nc(C(=O)NC(C)(C)C(C)(C)OC(=O)CCl)c2ccc(-c3ccc(OC(F)(F)F)c(Cl)c3)cc21 [QW-759] | 18.4 ± 8.3%
COc1ccc(-c2ccc3c(C(=O)NC(C)(C)COC(=O)C#C[Si](C)(C)C)nn(C)c3c2)cc1Cl [QW-612] | −5.7 ± 11.7%
CCOc1ccc(-c2ccc3c(C(=O)NC(C)(C)C(C)(C)OC(=O)CCl)nn(C)c3c2)cc1Cl [QW-765] | 12.0 ± 10.7%
COc1c(Cl)cc(-c2ccc3c(C(=O)NCC(C)(C)OC(=O)CCl)nn(C)c3c2)cc1Cl [QW-778] | 30.4 ± 10.0%
Cn1nc(C(=O)N2CCC(OC(=O)CCl)C2(C)C)c2ccc(-c3ccc4c(c3)OCO4)cc21 (centres unmarked) [QW-702] | 23.8 ± 3.7%

Same assay, conditions: 2.5 μM; 4th generation

SMILES | GPX4% inhibition at 2.5 μM
CCCOc1ccc(-c2ccc3c(C(=O)NC(C)(C)COC(=O)CCl)nn(Cc4ccc(Cl)cc4)c3c2)cc1Cl [QW-846] | 91.5 ± 3.9%

Same assay, conditions: 2.5 μM; generation 2

SMILES | GPX4% inhibition at 2.5 μM
Cn1nc(C(=O)N2CCC(OC(=O)CCl)C2(C)C)c2ccc(Br)cc21 (centres unmarked) [QW-673] | 41.9 ± 63.4%

Same assay, conditions: 5 μM

SMILES | GPX4% inhibition at 5 μM
Cn1nc(C(=O)NC(C)(C)COC(=O)CCl)c2ccc(-c3ccc(C(F)(F)F)cc3)cc21 [QW-502] | −10.2 ± 6.5%
Cn1nc(C(=O)NC(C)(C)COC(=O)CCl)c2ccc(-c3ccoc3)cc21 [QW-451] | 37.7 ± 4.1%
COc1ccc(-c2ccc3c(c2)c(C(=O)NC(C)(C)COC(=O)CCl)nn3C)cc1Cl [QW-584] | 9.5 ± 5.1%
CSc1ccc(-c2ccc3c(C(=O)NC(C)(C)COC(=O)CCl)nn(C)c3c2)cc1Cl [QW-558] | 91.2 ± 2.3%
Cn1nc(C(=O)NC(C)(C)COC(=O)CCl)c2ccc(-c3cnn(Cc4ccccc4)c3)cc21 [QW-579] | 66.3 ± 3.4%
Cn1nc(C(=O)NC(C)(C)COC(=O)CCl)c2ccc(-c3ccc(OC(F)(F)F)cc3)cc21 [QW-469] | 64.3 ± 0.7%
COC(=O)C=CC(=O)OCC(C)(C)NC(=O)c1nn(C)c2cc(-c3ccc(OC)c(Cl)c3)ccc12 [QW-646] | 30.6 ± 12.2%
Cn1nc(C(=O)NC(C)(C)COC(=O)CCl)c2ccc(-c3ccc(Cl)cc3)cc21 [QW-494] | 76.8 ± 2.3%
CN(C)CCCOc1ccc(-c2ccc3c(C(=O)NC(C)(C)COC(=O)CCl)nn(C)c3c2)cc1 [QW-647] | 20.9 ± 14.0%
Cn1nc(C(=O)NC(C)(C)COC(=O)CCl)c2ccc(-c3ccc(C=O)cc3)cc21 [QW-591] | 69.4 ± 3.3%
Cn1nc(C(=O)NC(C)(C)COC(=O)CCl)c2ccc(-c3ccc(N4CCOCC4)nc3)cc21 [QW-537] | 46.1 ± 2.7%
COc1ccc(-c2ccc3c(C(=O)NC(C)(C)COC(=O)CCl)nn(C)c3c2)cc1F [QW-567] | 54.7 ± 3.4%
Cn1nc(C(=O)NC(C)(C)COC(=O)CCl)c2ccc(-c3coc4ccccc34)cc21 [QW-535] | 62.2 ± 5.1%

Same assay, conditions: 5 μM; generation 2

SMILES | GPX4% inhibition at 5 μM
COC(=O)C=CC(=O)OCC(C)(C)NC(=O)c1nn(C)c2cc(Br)ccc12 [QW-415] | −9.4 ± 8.1%
Cn1nc(C(=O)NCCCCC(O)S(=O)(=O)[O-])c2ccc(Br)cc21.[Na+] (centres unmarked) [QW-534] | −36.6 ± 4.8%

Same assay, conditions: 20 μM; generation 2

SMILES | GPX4% inhibition at 20 (μM)
Cn1nc(C(=O)N2CCN(C(=O)CCl)CC2)c2ccccc21 [QW-370] | 0.5 ± 5.4%
Cn1nc(C(=O)NC(C)(C)CC=O)c2ccccc21 [QW-388] | 1.6 ± 1.9%

Same assay, conditions: 200 μM

SMILES | GPX4 inhibition
CC(C)(COC(=O)CCl)NC(=O)c1c[nH]c2ccccc12 [QW-280] | 76%

Same assay, conditions: 200 μM; generation 1; mean ± s.d., n = 3

SMILES | GPX4% inhibition at 200 (μM)
Cc1onc(C(=O)OCC(C)(C)NC(=O)c2cccs2)c1[N+](=O)[O-] [QW-262] | −0.6 ± 7.8%
C=CC(=O)OCCC(C)(C)NC(=O)c1cc2ccc(OC)cc2[nH]1 [QW-286] | 11.5 ± 7.1%
CC(C)(COC(=O)CCl)NC(=O)c1cccs1 [QW-259] | 27.7 ± 26.1%
COc1ccc2cc(C(=O)NC(C)(C)COC(=O)CCl)n(C)c2c1 [QW-320] | 84.3 ± 9.3%
CC(C)(COC(=O)CBr)NC(=O)c1cc2cc(Cl)ccc2[nH]1 [QW-165] | 73.9 ± 5.3%
CC(C)(COC(=O)CCl)NC(=O)CCc1cc2ccccc2[nH]1 [QW-270] | 65.5 ± 1.6%
C=CC(=O)OCC(C)(C)NC(=O)c1cc2ccccc2s1 [QW-276] | 5.9 ± 4.4%
COc1ccc2cc(C(=O)NC(C)(C)CCOC(=O)CBr)[nH]c2c1 [QW-285] | 77.9 ± 7.6%
CC(C)(COC(=O)CCl)NC(=O)c1cc2ccccc2s1 [QW-274] | 27.5 ± 4.4%
C=CC(=O)OCC(C)(C)NC(=O)c1cc2cc(C)ccc2[nH]1 [QW-170] | 5.3 ± 10.0%
CC(C)(COC(=O)CCl)NC(=O)c1c[nH]c2ccccc12 [QW-280] | 75.9 ± 15.5%
O=C(CCl)OCCCNC(=O)c1cc2cc(Cl)ccc2[nH]1 [QW-304] | 78.3 ± 4.3%

Same assay, conditions: 200 μM; generation 2

SMILES | GPX4% inhibition at 200 (μM)
Cn1nc(C(=O)NC(C)(C)COC(=O)C#C[Si](C)(C)C)c2ccccc21 [QW-367] | 7.0 ± 3.9%
Cn1nc(C(=O)N2CCN(C(=O)CCl)CC2)c2ccc(Br)cc21 [QW-330] | 33.2 ± 6.8%
C=CC(=O)OCC(C)(C)NC(=O)c1nn(C)c2ccccc12 [QW-366] | −7.3 ± 0.5%
CC(C)(COC(=O)CCl)NC(=O)c1n[nH]c2ccccc12 [QW-296] | 83.1 ± 21.9%

Same assay, conditions: 200 μM; mean ± s.d., n = 3

SMILES | GPX4% inhibition at 200 (μM)
Cc1ccc2[nH]c(C(=O)n3ccnc3)cc2c1 [QW-056] | 32.7 ± 18.4%

Same assay, conditions: concentration not given

SMILES | GPX4 inhibition rate
Cn1nc(C(=O)NC(C)(C)COC(=O)CCl)c2ccc(-c3ccc(OCC(F)(F)F)cc3)cc21 [QW-719] | no inhibition on GPX4

— patent US20250248979A1, “NOVEL GPX4 INHIBITORS AND USES THEREOF” (THE TRUSTEES OF COLUMBIA UNIVERSITY IN THE CITY OF NEW YORK, priority 2022, published 2025)
